Converted amounts (≈) assume the structure as drawn.
Assays:
Type in all cases: cell-based
[1] = tested on: Staphylococcus aureus ATCC29213; experiment: microbe, parasite or virus in culture; settings: 37° C., 20 hours
Experimental: (§1) ATP (%) of the antibacterial activity was measured in the same manner as mentioned above, and the “minimum inhibitory concentration (MIC)” was measured as follows. MIC is the lowest concentration of an agent that may inhibit the growth of a bacterium. MIC is used as a parameter for the efficacy of an antibacterial agent, for the strength of bacterial sensitivity, or the like. The bacteria can grow (proliferate) when the concentration is not higher than MIC, and cannot grow when the concentration is higher than MIC. […] (CLSI), but, in this Example, its measurement was carried out by a broth microdilution method in accordance with “M100-S17/M7-A7” (Performance Standards for Antimicrobial Susceptibility Testing; Seventeenth Informational Supplement, Vol. 27 No. 1) published by CLSI on January, 2007. That is, sensitivity test of agents was carried out using a microtiter plate or test tubes. The bacteria were cultured in the liquid media for 4 to 6 hours, and thereafter absorbances at A600 were measured. Bacterial suspensions were diluted with Mueller-Hinton broth (MHB) according to McFarland #0.5. Each strain was added so as to attain about 10^5 CFU/ml (final concentration). Each peptide was prepared to an optional concentration, and the solutions were serially diluted from the concentration. The polypeptide at each concentration stage was added to a microplate or test tubes, and the bacterial suspension was added thereto. […] The plate was incubated at 37° C. for 20 hours, the lowest concentration where bacterial growth was inhibited was regarded as the minimum inhibitory concentration. With respect to each strain, Escherichia coli: ATCC 25922 (Escherichia coli ATCC 25922), Pseudomonas aeruginosa: ATCC 27853 (Pseudomonas aeruginosa ATCC 27853), Staphylococcus aureus: ATCC29213 (Staphylococcus aureus ATCC29213), Klebsiella pneumoniae: JCM 1662 (Klebsiella pneumoniae JCM 1662), enterobacteria (1): JCM 1232 (Enterobacter cloacae JCM 1232), enterobacteria (2): JCM 1235 (Enterobacter aerogenes JCM 1235), and Staphylococcus epidermidis: JCM 2414 (Staphylococcus epidermidis JCM 2414), were used. […] As the concentrations of the agents in ATP assay, the concentrations as described in the Tables were used.

[2] = tested on: Pseudomonas aeruginosa ATCC 27853; experiment: microbe, parasite or virus in culture; settings: Pseudomonas aeruginosa, ATCC27853; 37° C., 20 hours
Experimental: as §1

[3] = tested on: Staphylococcus epidermidis JCM 2414; experiment: microbe, parasite or virus in culture; settings: Staphylococcus epidermidis, JCM2414; 37° C., 20 hours
Experimental: as §1

[4] = tested on: Enterobacteria (1): Enterobacter cloacae JCM 1232; experiment: Antibacterial activity, ATP assay (BacTiter-Glo); settings: ATP assay concentration: peptides 10, TOB 4.0, CPFX 1.0, OX 4.0, MEPM 8.0 μg/ml
Experimental: That is, using BacTiter-Glo Microbial Cell Viability Assay kit available from PROMEGA, the antibacterial activity of the peptides was evaluated from the viability of bacteria. […] With respect to the strains, Staphylococcus aureus ATCC29213 (S. aureus ATCC29213) as Gram-positive bacteria, or, alternatively, Pseudomonas aeruginosa (P. aeruginosa ATCC27853) as Gram-negative bacteria, was used. The bacteria were cultured in media for 3 to 4 hours, and thereafter absorbances at A600 were measured. Bacterial suspensions were diluted with Mueller-Hinton broth (MHB) according to McFarland #0.5. Each strain was added so as to attain about 0.5−1×10^5 CFU/mL (final concentration) in terms of Escherichia coli. […] A solution to which the peptides were not added was considered as a negative control, and a solution to which tobramycin (TOB) was added was considered as a positive control. […] Relative values were calculated by comparison with the negative control, and these values were regarded as the viability. […] ATP (%) of the antibacterial activity was measured in the same manner as mentioned above, and the “minimum inhibitory concentration (MIC)” was measured as follows. MIC is the lowest concentration of an agent that may inhibit the growth of a bacterium. MIC is used as a parameter for the efficacy of an antibacterial agent, for the strength of bacterial sensitivity, or the like. The bacteria can grow (proliferate) when the concentration is not higher than MIC, and cannot grow when the concentration is higher than MIC. […] (CLSI), but, in this Example, its measurement was carried out by a broth microdilution method in accordance with “M100-S17/M7-A7” (Performance Standards for Antimicrobial Susceptibility Testing; Seventeenth Informational Supplement, Vol. 27 No. 1) published by CLSI on January, 2007. That is, sensitivity test of agents was carried out using a microtiter plate or test tubes. With respect to each strain, Escherichia coli: ATCC 25922 (Escherichia coli ATCC 25922), Pseudomonas aeruginosa: ATCC 27853 (Pseudomonas aeruginosa ATCC 27853), Staphylococcus aureus: ATCC29213 (Staphylococcus aureus ATCC29213), Klebsiella pneumoniae: JCM 1662 (Klebsiella pneumoniae JCM 1662), enterobacteria (1): JCM 1232 (Enterobacter cloacae JCM 1232), enterobacteria (2): JCM 1235 (Enterobacter aerogenes JCM 1235), and Staphylococcus epidermidis: JCM 2414 (Staphylococcus epidermidis JCM 2414), were used. […] As the concentrations of the agents in ATP assay, the concentrations as described in the Tables were used.

SMILES | MIC [1] | MIC [2] | MIC [3] | ATP (%) mean, Enterobacteria (1) [4]
NC[C@H]1O[C@H](O[C@H]2[C@H](O)[C@@H](O[C@H]3O[C@H](CO)[C@@H](O)[C@H](N)[C@H]3O)[C@H](N)C[C@@H]2N)[C@H](N)C[C@@H]1O [TOB, tobramycin, reference compound] | 0.12 to 1 µg/mL (≈ 0.257 to 2.14 µM) | 0.25 to 1 µg/mL (≈ 0.535 to 2.14 µM) | 1 µg/mL (≈ 2.14 µM) | 3.0%
C[C@@H](O)[C@H]1C(=O)N2C(C(=O)O)=C(S[C@@H]3CN[C@H](C(=O)N(C)C)C3)[C@H](C)[C@H]12 [MEPM, meropenem, reference compound] | 0.03 to 0.12 µg/mL (≈ 0.0782 to 0.313 µM) | 0.25 to 1 µg/mL (≈ 0.652 to 2.61 µM) | 0.125 µg/mL (≈ 0.326 µM) | 5.6%

— patent US9376470B2, “Polypeptide having angiogenesis-inducing activity and antibacterial activity, and use thereof for medical purposes” (FunPep Inc., priority 2008, dated 2016)
